Measurements as given in ChEMBL document CHEMBL3603746, “Discovery of New H2S Releasing Phosphordithioates and 2,3-Dihydro-2-phenyl-2-sulfanylenebenzo[d][1,3,2]oxazaphospholes with Improved Antiproliferative Activity” (J Med Chem, 2015).
Activity calls are given as the source filed them. The calls are words filed in the database; no cut-off is given here.

Key:
[1] = Induction of H2S release in 10% PBS:MeCN solution at 0.5 mM incubated at 22 degC in dark condition measured at 48 hrs by 2, 6-dansyl azide probed-based fluorescence assay relative to control; format: physicochemical; settings: buffer, 500 µM
[2] = Induction of H2S release in 10% PBS:MeCN solution at 0.5 mM incubated at 37 degC in dark condition measured at 48 hrs by 1 mM 2, 6-dansyl azide probed-based fluorescence assay relative to control; format: physicochemical; settings: buffer, 500 µM
[3] = Induction of H2S release in 10% PBS:MeCN solution assessed as ratio of H2S level at 37 degC to H2S level at 22 degC at 0.5 mM incubated in dark condition measured at 96 hrs by 2, 6-dansyl azide probed-based fluorescence assay; format: physicochemical; settings: buffer, 500 µM
[4] = Induction of H2S release in 10% PBS:MeCN solution at 0.5 mM incubated at 22 degC in dark condition measured at 48 hrs by 2, 6-dansyl azide probed-based fluorescence assay relative to 12 uM of GYY4137; format: physicochemical; settings: buffer, 500 µM
[5] = Induction of H2S release in 10% PBS:MeCN solution at 0.5 mM incubated at 37 degC in dark condition measured at 48 hrs by 2, 6-dansyl azide probed-based fluorescence assay relative to 6.9 uM of GYY4137; format: physicochemical; settings: buffer, 500 µM
MCF7 [6] = assay: Cytotoxicity against human MCF7 cells assessed as inhibition of cell proliferation after 4 days by crystal violet assay; format: functional, cell-based; settings: MCF7, 96 h
MCF7 [7] = assay: cells; format: functional, cell-based; settings: Homo sapiens, MCF7, 72 h
Description: Cytotoxicity against human MCF7 cells assessed as inhibition of cell proliferation after 72 hrs by MTT assay

SK-OV-3 = assay: Cytotoxicity against human SKOV3 cells assessed as inhibition of cell proliferation after 4 days by crystal violet assay; format: functional, cell-based; settings: SK-OV-3, 96 h
MDA-MB-231 = assay: cells; format: functional, cell-based; settings: Homo sapiens, MDA-MB-231, 72 h
Description: Cytotoxicity against human MDA-MB-231 cells assessed as inhibition of cell proliferation after 72 hrs by MTS assay

[8] = Toxicity in human WI38 cells assessed as inhibition of cell proliferation after 4 days by crystal violet assay
[9] = Therapeutic index, ratio of IC50 for human WI38 cells to IC50 for human MCF7 cells; settings: WI38 cells and MCF7 cells
[10] = Therapeutic index, ratio of IC50 for human WI38 cells to IC50 for human SKOV3 cells; settings: WI38 cells and SKOV3 cells
[11] = Therapeutic index, ratio of IC50 for human WI38 cells to IC50 for human MBA-MD-231 cells; settings: WI38 cells and MBA-MD-231 cells
[12] = Therapeutic index, ratio of IC50 for human WI38 cells to IC50 for human PC3 cells; settings: WI38 cells and PC3 cells
Hepatocyte = assay: Toxicity in transforming growth factor alpha transgenic mouse hepatocytes at 100 uM after 24 hrs by CellTiter-Glo cell viability assay; format: cell-based
[13] = Toxicity in transforming growth factor alpha transgenic mouse hepatocytes assessed as inhibition of cell proliferation after 24 hrs by CellTiter-Glo cell viability assay; format: cell-based, Hepatocyte
[14] = Toxicity in human AC10 cells assessed as inhibition of cell proliferation at 100 uM after 24 hrs by CellTiter-Glo cell viability assay relative to control; format: cell-based
[15] = Induction of H2S release in 10% PBS:MeCN solution at 5 mM incubated at 22 degC in dark condition measured at 96 hrs by 2, 6-dansyl azide probed-based fluorescence assay relative to control; settings: buffer, 5000 µM
[16] = Induction of H2S release in 10% PBS:MeCN solution at 5 mM incubated at 37 degC in dark condition measured at 96 hrs by 0.2 mM 2, 6-dansyl azide probed-based fluorescence assay relative to control; format: physicochemical; settings: buffer, 5000 µM
[17] = Induction of H2S release in 10% PBS:MeCN solution assessed as ratio of H2S level at 37 degC to H2S level at 22 degC at 5 mM incubated in dark condition measured at 96 hrs by 2, 6-dansyl azide probed-based fluorescence assay; settings: buffer, 5000 µM
[18] = Induction of H2S release in 10% PBS:MeCN solution at 5 mM incubated at 22 degC in dark condition measured at 96 hrs by 2, 6-dansyl azide probed-based fluorescence assay relative to GYY4137; format: physicochemical; settings: buffer, 5000 µM
[19] = Induction of H2S release in 10% PBS:MeCN solution at 5 mM incubated at 37 degC in dark condition measured at 96 hrs by 2, 6-dansyl azide probed-based fluorescence assay relative to GYY4137; format: physicochemical; settings: buffer, 5000 µM
PC-3 = assay: cells; format: functional, cell-based; settings: Homo sapiens, PC-3, 72 h
Description: Cytotoxicity against human PC3 cells assessed as inhibition of cell proliferation after 72 hrs by MTT assay

[20] = Effective permeability of the compound at 500 uM after 6 hrs by PAMPA; settings: PAMPA
[21] = Effective permeability of the compound at 500 uM after 16 hrs by PAMPA
physchem [22] = settings: DMSO, pH 7.4
Description: Kinetic solubility of the compound in DMSO at pH 7.4 measured at 3 hrs by multiscreen filter paper-based UV absorbance analysis

physchem [23] = settings: DMSO, pH 7.4; remark: listed apart in the source
Description: Kinetic solubility of the compound in DMSO at pH 7.4 measured at 24 hrs by multiscreen filter paper-based UV absorbance analysis

[24] = Induction of H2S release in 10% PBS:MeCN solution at 5 mM incubated at 37 degC in dark condition measured at 96 hrs by 1 mM 2, 6-dansyl azide probed-based fluorescence assay relative to control; settings: buffer, 5000 µM
[25] = Toxicity in human AC10 cells assessed as inhibition of cell proliferation after 24 hrs by CellTiter-Glo cell viability assay; format: cell-based
Salmonella typhi [26] = assay: Genotoxicity in Salmonella […] TA98 at 10 to 100 ug/plate after 48 hrs by Ames test in presence of S9 fraction; format: toxicity, organism-based; settings: salmonella enterica subsp. enterica serovar […], s9, 48 h
Salmonella typhi [27] = assay: Genotoxicity in Salmonella […] TA100 at 10 to 100 ug/plate after 48 hrs by Ames test in presence of S9 fraction; format: toxicity, organism-based; settings: salmonella enterica subsp. enterica serovar […], s9, 48 h
Salmonella typhi [28] = assay: Genotoxicity in Salmonella […] TA98 at 10 to 100 ug/plate after 48 hrs by Ames test in absence of S9 fraction; format: toxicity, organism-based; settings: salmonella enterica subsp. enterica serovar […]
Salmonella typhi [29] = assay: Genotoxicity in Salmonella […] TA100 at 10 to 100 ug/plate after 48 hrs by Ames test in absence of S9 fraction; format: toxicity, organism-based; settings: salmonella enterica subsp. enterica serovar […]
MCF7 [30] = assay: Reduction of intracellular pH in human MCF7 cells at 50 uM after 48 hrs by BCECF-AM staining-based confocal microscopic analysis; format: functional
MCF7 [31] = assay: Induction of H2S release in human MCF7 cells at 200 uM measured at 6 hrs by probe 21-based fluorescence assay; format: functional
[32] = Induction of H2S release in aqueous acetonitrile solution at 200 uM measured over 4 days by probe 21-based fluorescence assay; settings: buffer, 96 h
MCF7 [33] = assay: Induction of H2S release in human MCF7 cells at 400 uM measured at 6 hrs by probe 21-based fluorescence assay; format: functional
MCF7 [34] = assay: Induction of H2S release in human MCF7 cells at 200 uM measured at 24 hrs by probe 21-based fluorescence assay; format: functional
MCF7 [35] = assay: Induction of H2S release in human MCF7 cells at 400 uM measured at 24 hrs by probe 21-based fluorescence assay; format: functional
[36] = Induction of H2S release in aqueous acetonitrile solution at 400 uM measured over 4 days by probe 21-based fluorescence assay; settings: buffer, 96 h
MCF7 [37] = assay: Induction of H2S release in human MCF7 cells at 400 uM after 5 hrs by probe 21-based confocal fluorescence microscopic analysis; format: functional, cell-based

Compound: C1COCCN1.S=P(S)(N1CCOCC1)N1CCOCC1
- %max [1]: 67.2%
- %max [2]: 76.2%
- Ratio [3]: 1.1
- fold change (FC) [4]: 56
- fold change (FC) [5]: 110.4
- IC50 (MCF7 [6]): 221 µM
- IC50 (MCF7 [7]): 331 µM
- IC50 (SK-OV-3): 267 µM
- IC50 (MDA-MB-231): 381 µM
- IC50 at 4 days [8]: 683 µM
- selectivity ratio [9]: 2.6
- selectivity ratio [10]: 2.6
- selectivity ratio [11]: 2.6
- selectivity ratio [12]: 2.6
- Activity (Hepatocyte): Non-toxic

Compound: C1CSCCN1.S=P(S)(N1CCSCC1)N1CCSCC1
- %max [1]: 48.5%
- %max [2]: 62.6%
- Ratio [3]: 1.3
- fold change (FC) [4]: 40
- fold change (FC) [5]: 90.7
- IC50 (MCF7 [6]): 20.4 µM
- IC50 (SK-OV-3): 15.8 µM
- IC50 at 4 days [8]: 30.4 µM
- selectivity ratio [9]: 1.5
- selectivity ratio [10]: 1.5
- selectivity ratio [11]: 1.5
- selectivity ratio [12]: 1.5
- IC50 at 24 h [13]: 120 µM
- inhibition at 24 h, 100 µM [14]: 35.6%

Compound: C1COCCN1.CC(C)OP(=S)(S)c1ccc(Oc2ccccc2)cc1 (stereo not given)
- %max [15]: 0.06%
- %max [16]: 0.15%
- Ratio [17]: 2.6
- fold change (FC) [18]: < 0.1
- fold change (FC) [19]: < 0.1
- IC50 (MCF7 [6]): 51.4 µM
- IC50 (MCF7 [7]): 178 µM
- IC50 (SK-OV-3): 50.2 µM
- IC50 (MDA-MB-231): 94.8 µM
- IC50 (PC-3): 50.8 µM
- IC50 at 4 days [8]: 72.8 µM
- selectivity ratio [9]: 1.4
- selectivity ratio [10]: 1.4
- selectivity ratio [11]: 1.4
- selectivity ratio [12]: 1.4
- inhibition at 24 h, 100 µM [14]: 28.6%
- Papp at 6 h, 500 µM [20]: 0.0066 ×10⁻⁶ cm/s
- Papp at 16 h, 500 µM [21]: 0.0051 ×10⁻⁶ cm/s
- solubility kinetic at 3 h (physchem [22]): > 400 µg/mL
- solubility kinetic at 24 h (physchem [23]): > 400 µg/mL

Compound: NCc1ccccc1.S=P(S)(NCc1ccccc1)c1ccc(Oc2ccccc2)cc1 (stereo not given)
- %max [15]: 1.28%
- %max [24]: 2.81%
- Ratio [17]: 2.2
- fold change (FC) [18]: 0.9
- fold change (FC) [19]: 0.5
- IC50 (MCF7 [6]): 36.3 µM
- IC50 (MCF7 [7]): 67.6 µM
- IC50 (SK-OV-3): 47 µM
- IC50 (MDA-MB-231): 55.4 µM
- IC50 (PC-3): 45.6 µM
- IC50 at 4 days [8]: 104 µM
- selectivity ratio [9]: 1.5
- selectivity ratio [10]: 1.5
- selectivity ratio [11]: 1.5
- selectivity ratio [12]: 1.5
- IC50 at 24 h [13]: 23.5 µM
- IC50 at 24 h [25]: 62.6 µM
- Activity (Salmonella typhi [26]): Non-toxic
- Activity (Salmonella typhi [27]): Non-toxic
- Activity (Salmonella typhi [28]): Non-toxic
- Activity (Salmonella typhi [29]): Non-toxic
- Papp at 6 h, 500 µM [20]: 0.19 ×10⁻⁶ cm/s
- Papp at 16 h, 500 µM [21]: 0.97 ×10⁻⁶ cm/s
- pH (MCF7 [30]): 6.75
- Activity (MCF7 [31]): 41.5 µM
- Activity [32]: 9.03 µM
- Activity (MCF7 [33]): 48.2 µM
- Activity (MCF7 [34]): 93.4 µM
- Activity (MCF7 [35]): 74.6 µM
- Activity [36]: 17.19 µM
- Activity (MCF7 [37]): Active
- solubility kinetic at 3 h (physchem [22]): 200 µg/mL
- solubility kinetic at 24 h (physchem [23]): 180 µg/mL

Compound: CCNCCOP(=S)(S)c1ccc(OC)cc1 (stereo not given)
- %max [15]: < 0.01%
- %max [16]: 0.03%
- fold change (FC) [19]: < 0.1
- IC50 (MCF7 [6]): > 400 µM
- IC50 (MCF7 [7]): 481 µM
- IC50 (SK-OV-3): > 400 µM
- IC50 (MDA-MB-231): > 500 µM
- Papp at 6 h, 500 µM [20]: 0.013 ×10⁻⁶ cm/s
- Papp at 16 h, 500 µM [21]: 0.0041 ×10⁻⁶ cm/s
- solubility kinetic at 3 h (physchem [22]): > 290 µg/mL
- solubility kinetic at 24 h (physchem [23]): > 290 µg/mL

Compound: COc1ccc(P(=S)(S)NCc2ccccc2)cc1.NCc1ccccc1 (stereo not given)
- %max [15]: 2.19%
- %max [24]: 5.07%
- Ratio [17]: 2.3
- fold change (FC) [18]: 1.5
- fold change (FC) [19]: 0.8
- IC50 (MCF7 [6]): 84.2 µM
- IC50 (MCF7 [7]): 82.4 µM
- IC50 (SK-OV-3): 89.9 µM
- IC50 (MDA-MB-231): 41.1 µM
- IC50 (PC-3): 31.9 µM
- IC50 at 4 days [8]: 208 µM
- selectivity ratio [9]: 2.3
- selectivity ratio [10]: 2.3
- selectivity ratio [11]: 2.3
- selectivity ratio [12]: 2.3
- Activity [32]: 5.55 µM
- Activity [36]: 10.29 µM

Compound: C1COCCN1.S=P(S)(c1ccc(Oc2ccccc2)cc1)N1CCOCC1 (stereo not given)
- %max [15]: 1.68%
- %max [24]: 5.54%
- Ratio [17]: 3.3
- fold change (FC) [18]: 1.2
- fold change (FC) [19]: 0.9
- IC50 (MCF7 [6]): 195 µM
- IC50 (MCF7 [7]): 163 µM
- IC50 (SK-OV-3): 326 µM
- IC50 (MDA-MB-231): 95.2 µM
- IC50 (PC-3): 102 µM
- IC50 at 4 days [8]: 656 µM
- selectivity ratio [9]: 2
- selectivity ratio [10]: 2
- selectivity ratio [11]: 2
- selectivity ratio [12]: 2
- Activity (Hepatocyte): Non-toxic
- Papp at 6 h, 500 µM [20]: 0.015 ×10⁻⁶ cm/s
- Papp at 16 h, 500 µM [21]: 0.013 ×10⁻⁶ cm/s
- Activity [32]: 4.14 µM
- Activity [36]: 5.47 µM
